According to patent US11028075B2, “Therapeutic compounds and methods of use thereof” (GENENTECH, INC., priority 2018, dated 2021):
Counter-ions that a name gives are not always drawn.

Legend:
hNav1.7 [1] = molecular target: T1, hNav1.7 (Homo sapiens (Human), UniProt Q15858); assay: Tritiated compound binding to membranes from cells heterologously expressing hNav1.7 and the β1 subunit (Nav1.7 LBA); details: competitive binding vs [3H]compound, membranes with hNav1.7 and β1 subunit; read-out: Nav1.7 LBA EVO IC50
Protocol: Example 93A. Tritiated Compound Binding to Membranes Isolated from Cells that Heterologously Express hNav1.7 and the β1 Subunit
Preparation of membranes containing recombinantly expressed sodium channels: Frozen recombinant cell pellets are thawed on ice and diluted to 4 times the cell pellet weight with ice cold 50 mM Tris HCl, pH 7.4 buffer. The cell suspensions are homogenized on ice using a motorized glass dounce homogeniser. Homogenates are further diluted 8.4 times with ice cold 50 mM Tris HCl, pH 7.4 buffer and then centrifuged at 200×g at 4° C. for 15 minutes. The supernatants are collected and centrifuged at 10000×g at 4° C. for 50 min. The pellets are then re-suspended in 100 mM NaCl, 20 mM Tris HCl, pH 7.4 buffer containing 1% v/v protease inhibitors (Calbiochem) and re-homogenized on ice. The homogenized membranes are then processed through a syringe equipped with a 26 gauge needle. Protein concentrations arer determined by Bradford Assay and the membranes are stored at −80° C.
Saturation experiments. A competitive NaV1.7 inhibitor having a methyl group is tritiated. Three tritiums are incorporated in place of methyl hydrogens to generate [^3H]compound. Binding of this radioligand is performed in 5 mL borosilicate glass test tubes at room temperature. Binding is initiated by adding membranes to increasing concentrations of [^3H]compound in 100 mM NaCl, 20 mM Tris HCl, pH 7.4 buffer containing 0.01% w/v bovine serum albumin (BSA) for 18 h. Non-specific binding is determined in the presence of 1 μM unlabeled compound. After 18 h, the reactants are filtered through GF/C glass fiber filters presoaked in 0.5% w/v polyethylene imine. Filters are washed with 15 mL ice cold 100 mM NaCl, 20 mM Tris HCl, pH7.4 buffer containing 0.25% BSA to separate bound from free ligand. [^3H]compound bound to filters is quantified by liquid scintillation counting.
Binding reactions are performed in 96-well polypropylene plates at room temperature for 18 h. In 360 μL, membranes are incubated with […] [^3H]compound and increasing concentrations of Test Compound. Non-specific binding is defined in the presence of 1 μM unlabeled compound. Reactions are transferred and filtered through 96-well glass fiber/C filter plates presoaked with 0.5% polyethylene imine. The filtered reactions are washed 5 times with 200 μL ice cold buffer containing 0.25% BSA. Bound radioactivity is determined by liquid scintillation counting.
Data Analysis: For saturation experiments, non-specific binding is subtracted from total binding to provide specific binding and these values are recalculated in terms of pmol ligand bound per mg protein. Saturation curves are constructed and dissociation constants are calculated using the single site ligand binding model: Beq=(Bmax*X)/(X+Kd), where Beq is the amount of ligand bound at equilibrium, Bmax is the maximum receptor density, Kd is the dissociation constant for the ligand, and X is the free ligand concentration. For competition studies percent inhibition is determined and IC50 values are calculated using a 4 parameter logistic model (% inhibition=(A+((B−A)/(1+((x/C)^D)))) using XLfit, where A and B are the maximal and minimum inhibition respectively, C is the IC50 concentration and D is the (Hill) slope.
Example 93B. Tritiated Compound Binding to Membranes Isolated from Cells that Heterologous Express hNav1.7 and the β1 Subunit
Following the procedure described in Example 93A, and making modifications as required to: centrifuge supernatants at 100000×g instead of 10000×g; re-suspend pellets in a buffer containing 0.01% BSA in addition to 100 mM NaCl, 20 mM Tris HCl, pH 7.4 buffer, and 1% v/v proteasome inhibitors; and storing membranes at −80° C. in single use aliquots instead of pooled. […]
Target sequence in this assay (Q15858 whole entry, looked up): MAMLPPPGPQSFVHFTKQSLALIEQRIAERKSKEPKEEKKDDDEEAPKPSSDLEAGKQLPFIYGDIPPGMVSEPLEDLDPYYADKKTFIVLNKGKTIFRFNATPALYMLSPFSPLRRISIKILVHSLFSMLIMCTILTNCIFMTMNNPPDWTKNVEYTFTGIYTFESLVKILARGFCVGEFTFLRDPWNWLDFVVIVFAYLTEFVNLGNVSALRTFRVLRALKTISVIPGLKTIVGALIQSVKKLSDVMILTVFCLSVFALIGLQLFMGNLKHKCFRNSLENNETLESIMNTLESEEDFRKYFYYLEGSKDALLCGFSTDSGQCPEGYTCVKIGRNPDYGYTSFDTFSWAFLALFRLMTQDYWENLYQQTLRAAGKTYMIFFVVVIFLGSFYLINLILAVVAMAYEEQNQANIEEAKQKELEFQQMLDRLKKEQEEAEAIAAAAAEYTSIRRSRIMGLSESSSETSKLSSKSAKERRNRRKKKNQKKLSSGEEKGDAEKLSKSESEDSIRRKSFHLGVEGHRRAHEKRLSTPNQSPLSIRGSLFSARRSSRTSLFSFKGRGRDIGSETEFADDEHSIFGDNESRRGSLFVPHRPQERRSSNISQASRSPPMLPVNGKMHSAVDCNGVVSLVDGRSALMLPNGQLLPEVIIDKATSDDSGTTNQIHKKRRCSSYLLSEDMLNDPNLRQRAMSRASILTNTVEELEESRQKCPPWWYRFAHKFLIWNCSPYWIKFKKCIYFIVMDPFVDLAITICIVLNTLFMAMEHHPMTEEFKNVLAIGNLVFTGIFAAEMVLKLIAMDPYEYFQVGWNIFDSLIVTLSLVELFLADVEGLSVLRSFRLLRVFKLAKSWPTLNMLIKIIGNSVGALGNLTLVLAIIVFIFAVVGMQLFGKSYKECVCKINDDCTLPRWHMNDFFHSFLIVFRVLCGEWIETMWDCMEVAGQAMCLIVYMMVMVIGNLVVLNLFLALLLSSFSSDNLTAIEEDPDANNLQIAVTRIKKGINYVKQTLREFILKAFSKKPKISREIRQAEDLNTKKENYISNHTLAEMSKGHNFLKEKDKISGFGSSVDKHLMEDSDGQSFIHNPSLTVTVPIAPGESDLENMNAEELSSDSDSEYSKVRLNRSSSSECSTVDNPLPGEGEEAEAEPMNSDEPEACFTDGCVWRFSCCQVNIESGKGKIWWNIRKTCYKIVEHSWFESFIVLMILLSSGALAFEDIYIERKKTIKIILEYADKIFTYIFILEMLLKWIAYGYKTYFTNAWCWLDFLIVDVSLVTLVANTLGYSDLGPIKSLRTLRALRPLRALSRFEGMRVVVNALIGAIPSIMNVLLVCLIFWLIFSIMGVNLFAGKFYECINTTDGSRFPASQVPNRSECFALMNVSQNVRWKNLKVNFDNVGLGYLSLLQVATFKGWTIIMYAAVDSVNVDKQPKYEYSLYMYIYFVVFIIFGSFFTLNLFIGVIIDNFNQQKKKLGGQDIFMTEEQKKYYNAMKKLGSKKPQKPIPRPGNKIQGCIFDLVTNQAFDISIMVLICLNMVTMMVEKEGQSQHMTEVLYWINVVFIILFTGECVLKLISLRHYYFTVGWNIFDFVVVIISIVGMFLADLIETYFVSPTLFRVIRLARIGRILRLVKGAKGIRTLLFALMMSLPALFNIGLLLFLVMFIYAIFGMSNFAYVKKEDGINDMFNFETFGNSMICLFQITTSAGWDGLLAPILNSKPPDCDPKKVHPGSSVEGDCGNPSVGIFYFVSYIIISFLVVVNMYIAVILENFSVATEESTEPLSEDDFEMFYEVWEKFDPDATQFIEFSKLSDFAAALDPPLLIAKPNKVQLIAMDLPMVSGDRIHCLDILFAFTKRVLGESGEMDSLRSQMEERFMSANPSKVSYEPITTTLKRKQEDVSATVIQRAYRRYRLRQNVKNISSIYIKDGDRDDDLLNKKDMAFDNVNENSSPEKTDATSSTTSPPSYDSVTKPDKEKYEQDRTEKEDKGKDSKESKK
Target sequence in this assay (Q07699 whole entry partner, looked up): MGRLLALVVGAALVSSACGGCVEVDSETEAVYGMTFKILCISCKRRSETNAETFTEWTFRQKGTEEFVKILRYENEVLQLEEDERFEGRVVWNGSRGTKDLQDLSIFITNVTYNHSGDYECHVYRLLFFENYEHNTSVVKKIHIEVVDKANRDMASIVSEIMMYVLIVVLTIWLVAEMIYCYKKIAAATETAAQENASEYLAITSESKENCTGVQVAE

hNav1.7 [2] = molecular target: T1, hNav1.7; assay: Electrophysiological assay (EP), voltage clamp on Syncropatch 384PE, CHO cells stably expressing Nav1.7; format: cell-based; details: holding potential −50 mV, 7.5 min compound incubation, read-out: EP_SP hNav1.7 EVO IC50
Description: Example 93C. Electrophysiological Assay (EP) (In Vitro Assay)
Patch voltage clamp electrophysiology allows for the direct measurement and quantification of block of voltage-gated sodium channels (NaV's), and allows the determination of the time- and voltage-dependence of block which has been interpreted as differential binding to the resting, open, and inactivated states of the sodium channel (Hille, B., Journal of General Physiology (1977), 69: 497-515).
The following voltage clamp electrophysiology studies are performed on representative compounds using cells heterologously expressing Nav1.7 or Nav1.5 channels. cDNAsfor Nav1.7 (NM_002977) and Nav1.5 (AC137587) are stably expressed in Chinese Hamstr Ovary (CHO) cells and CHL (Chinese Hamster Lung) cells respectively. Sodium currents are measured in the whole-cell configuration using Syncropatch 384PE (Nanlon Technologies, Germany). 1NPC®-384 chips with custom medium resistance and single hole mode are used. Internal solution consists of (in mM): […], 10 […], 20 EGTA, and 10 Hepes (pH adjusted to 7.2); and external solution contains (in mM): 60 NMDG, 80 NaCl, 4 KCl, 1 MgCl2, 2 CaCl2, 2 D-Glucose monohydrate, 10 Hepes (pH adjusted to 7.4 with NaOH).
After system flushing, testing compounds are dissolved in external solution containing 0.1% Pluronic F-127. The chip is moved into the measuring head and the instrument primes the chip with external and internal solutions. 10 μl cells are added to the chip from a cell hotel, and a negative pressure of −50 mBar is applied to form a seal. Following treatment with seal enhancer solution and wash-off with external solution, negative pressure of −250 mbar is applied for 1 second to achieve the whole-cell configuration, followed by three washing steps in external solution. 20 μl of compounds is added to 40 μl in each well (1:3 dilution of compounds), and after mixing, 20 μl is removed so the volume is retained at 40 μl. After approximately 13 minutes recordings, 20 μl/well of 2 uM TTX, or 333 uM Tetracaine (for Nav1.5) is added to achieve full block.
For voltage protocol, an holding potential of −50 mV is applied during the whole experiment. A depolarizing step is applied to −10 mV for 10 ms, followed by a hyperpolarization step to −150 mV for 20 ms to allow channel recovery from inactivation. A second depolarizing step is applied from −150 mV to −10 mV for 10 ms, where currents are measured to derive blocking effects of compounds. Inhibition is determined based on 7.5 min of compound incubation.
Target sequence in this assay (Q15858 other isoform, or with tags, fused parts or gaps): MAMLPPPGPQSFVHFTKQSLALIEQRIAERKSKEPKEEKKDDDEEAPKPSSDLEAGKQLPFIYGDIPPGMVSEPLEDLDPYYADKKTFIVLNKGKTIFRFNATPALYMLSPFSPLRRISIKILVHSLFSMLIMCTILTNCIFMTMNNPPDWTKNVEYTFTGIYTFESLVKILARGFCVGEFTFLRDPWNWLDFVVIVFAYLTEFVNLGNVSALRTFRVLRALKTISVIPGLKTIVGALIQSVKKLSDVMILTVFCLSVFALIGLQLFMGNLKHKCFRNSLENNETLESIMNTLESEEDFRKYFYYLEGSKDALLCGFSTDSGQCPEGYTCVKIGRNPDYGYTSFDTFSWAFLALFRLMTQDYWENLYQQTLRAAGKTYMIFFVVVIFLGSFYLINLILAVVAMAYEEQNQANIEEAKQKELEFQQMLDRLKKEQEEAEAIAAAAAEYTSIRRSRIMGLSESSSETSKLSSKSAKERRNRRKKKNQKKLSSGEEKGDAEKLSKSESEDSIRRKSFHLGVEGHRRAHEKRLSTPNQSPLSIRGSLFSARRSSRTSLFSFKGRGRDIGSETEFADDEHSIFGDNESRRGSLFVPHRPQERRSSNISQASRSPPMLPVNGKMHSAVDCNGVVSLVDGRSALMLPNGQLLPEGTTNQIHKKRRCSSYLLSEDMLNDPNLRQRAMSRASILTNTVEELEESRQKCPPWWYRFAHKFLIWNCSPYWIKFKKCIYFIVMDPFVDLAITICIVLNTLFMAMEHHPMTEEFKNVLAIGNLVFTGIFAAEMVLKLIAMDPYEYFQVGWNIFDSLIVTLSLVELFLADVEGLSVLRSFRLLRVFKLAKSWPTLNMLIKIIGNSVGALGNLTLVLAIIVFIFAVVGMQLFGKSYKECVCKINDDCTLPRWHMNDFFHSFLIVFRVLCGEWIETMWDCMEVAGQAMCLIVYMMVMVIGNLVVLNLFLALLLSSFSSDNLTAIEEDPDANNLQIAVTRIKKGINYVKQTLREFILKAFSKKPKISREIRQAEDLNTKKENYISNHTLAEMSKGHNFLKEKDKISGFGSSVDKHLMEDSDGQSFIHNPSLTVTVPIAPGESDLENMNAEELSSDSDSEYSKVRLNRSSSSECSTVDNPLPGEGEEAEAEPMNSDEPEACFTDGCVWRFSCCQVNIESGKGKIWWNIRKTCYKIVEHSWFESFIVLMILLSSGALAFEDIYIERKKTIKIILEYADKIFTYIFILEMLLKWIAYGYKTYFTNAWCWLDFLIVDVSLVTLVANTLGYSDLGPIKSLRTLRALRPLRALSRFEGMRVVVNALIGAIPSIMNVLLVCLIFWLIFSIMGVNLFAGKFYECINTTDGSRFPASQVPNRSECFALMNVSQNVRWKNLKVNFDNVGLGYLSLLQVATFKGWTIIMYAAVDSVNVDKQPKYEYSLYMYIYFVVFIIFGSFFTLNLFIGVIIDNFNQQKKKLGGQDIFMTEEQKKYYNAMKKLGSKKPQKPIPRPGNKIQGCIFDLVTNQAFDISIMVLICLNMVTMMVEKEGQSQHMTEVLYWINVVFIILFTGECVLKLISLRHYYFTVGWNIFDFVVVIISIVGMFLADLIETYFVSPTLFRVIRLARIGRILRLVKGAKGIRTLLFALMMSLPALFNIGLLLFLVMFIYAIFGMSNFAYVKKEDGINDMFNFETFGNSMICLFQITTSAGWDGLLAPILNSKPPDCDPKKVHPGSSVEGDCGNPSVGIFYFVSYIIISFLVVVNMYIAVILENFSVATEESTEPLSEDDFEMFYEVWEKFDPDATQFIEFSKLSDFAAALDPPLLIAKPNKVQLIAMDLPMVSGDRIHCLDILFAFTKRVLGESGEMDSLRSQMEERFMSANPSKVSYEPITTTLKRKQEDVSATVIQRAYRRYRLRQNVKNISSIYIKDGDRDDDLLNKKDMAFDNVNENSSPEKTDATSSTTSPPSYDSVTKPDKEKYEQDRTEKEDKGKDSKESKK

| SMILES | IC50 (hNav1.7 [1]) | IC50 (hNav1.7 [2]) |
| --- | --- | --- |
| O=S(=O)(Nc1ccncn1)c1cc(F)c(N[C@H]2CC[C@H](c3cccc(C(F)(F)F)c3)C[C@@H]2N2CCCC2)cc1F [Example 23, 2,5-difluoro-N-(pyrimidin-4-yl)-4-(((1S,2S,4S)-2-(pyrrolidin-1-yl)-4-(3-(trifluoromethyl)-phenyl)cyclohexyl)amino)benzenesulfonamide formate] | 1.21 nM | 1.63 nM |
| CN(C)[C@H]1C[C@@H](c2cc(Cl)cc(C(F)(F)F)c2)CC[C@@H]1Nc1cc(F)c(S(=O)(=O)Nc2ccncn2)cc1Cl [Example 24, 5-chloro-4-(((1S,2S,4S)-4-(3-chloro-5-(trifluoromethyl)phenyl)-2-(dimethylamino)cyclohexyl)-amino)-2-fluoro-N-(pyrimidin-4-yl)benzenesulfonamide] | 0.583 nM | 0.383 nM |
| CN(C)[C@H]1C[C@@H](c2cc(F)cc(Cl)c2)CC[C@@H]1Nc1cc(F)c(S(=O)(=O)Nc2ccncn2)cc1Cl [Example 25, 5-chloro-4-(((1S,2S,4S)-4-(3-chloro-5-fluorophenyl)-2-(dimethylamino)cyclohexyl)amino)-2-fluoro-N-(pyrimidin-4-yl)benzenesulfonamide] | 3.02 nM | 2.31 nM |
| CN(C)[C@H]1C[C@@H](c2cccc(F)c2)CC[C@@H]1Nc1cc(F)c(S(=O)(=O)Nc2ccncn2)cc1Cl [Example 26, 5-Chloro-4-(((1S,2S,4S)-2-(dimethylamino)-4-(3-fluorophenyl)cyclohexyl)amino)-2-fluoro-N-(pyrimidin-4-yl)benzenesulfonamide formate] | 11.8 nM | 2.97 nM |
| CN(C)[C@H]1C[C@@H](c2cccc(CC(F)(F)F)c2)CC[C@@H]1Nc1cc(F)c(S(=O)(=O)Nc2ccncn2)cc1Cl [Example 27, 5-chloro-4-(((1S,2S,4S)-2-(dimethylamino)-4-(3-(2,2,2-trifluoroethyl)phenyl)cyclohexyl)-amino)-2-fluoro-N-(pyrimidin-4-yl)benzenesulfonamide] | 1.22 nM | 1.33 nM |
| CN(C)CC(=O)N[C@H]1C[C@@H](c2cccc(C(F)(F)F)c2)CC[C@@H]1Nc1cc(F)c(S(=O)(=O)Nc2ccncn2)cc1Cl [Example 28, N-((1S,2S,5S)-2-((2-chloro-5-fluoro-4-(N-(pyrimidin-4-yl)sulfamoyl)phenyl)amino)-5-(3-(trifluoromethyl)phenyl)cyclohexyl)-2-(dimethylamino)acetamide] | 84 nM | 36.3 nM |
| CN(C)CC(=O)N(C)[C@H]1C[C@@H](c2cccc(C(F)(F)F)c2)CC[C@@H]1Nc1cc(F)c(S(=O)(=O)Nc2ccncn2)cc1Cl [Example 29, N-((1S,2S,5S)-2-((2-chloro-5-fluoro-4-(N-(pyrimidin-4-yl)sulfamoyl)phenyl)amino)-5-(3-(trifluoromethyl)phenyl)cyclohexyl)-2-(dimethylamino)-N-methylacetamide formate] | 3.56 nM | 2.25 nM |
| CC(C)[C@H](N)C(=O)N[C@H]1C[C@@H](c2cccc(C(F)(F)F)c2)CC[C@@H]1Nc1cc(F)c(S(=O)(=O)Nc2ccncn2)cc1Cl [Example 30, (S)-2-Amino-N-((1S,2S,5S)-2-((2-chloro-5-fluoro-4-(N-(pyrimidin-4-yl)sulfamoyl)-phenyl)amino)-5-(3-(trifluoromethyl)phenyl)cyclohexyl)-3-methylbutanamide formate] | 37.5 nM | 28.4 nM |
| CC(C)[C@H](N)C(=O)N(C)[C@H]1C[C@@H](c2cccc(C(F)(F)F)c2)CC[C@@H]1Nc1cc(F)c(S(=O)(=O)Nc2ccncn2)cc1Cl [Example 31, (S)-2-amino-N-((1S,2S,5S)-2-((2-chloro-5-fluoro-4-(N-(pyrimidin-4-yl)sulfamoyl)-phenyl)amino)-5-(3-(trifluoromethyl)phenyl)cyclohexyl)-N,3-dimethylbutanamide formate] | 2.78 nM | 0.462 nM |
| CN(C)[C@H]1C[C@@H](c2cccc(C(C)(F)F)c2)CC[C@@H]1Nc1cc(F)c(S(=O)(=O)Nc2ccncn2)cc1Cl [Example 32, 5-chloro-4-(((1S,2S,4S)-4-(3-(1,1-difluoroethyl)phenyl)-2-(dimethylamino)-cyclohexyl)-amino)-2-fluoro-N-(pyrimidin-4-yl)benzenesulfonamide] | 2.04 nM | 1.6 nM |
| CN1CC[C@H](C(=O)N(C)[C@H]2C[C@@H](c3cccc(C(F)(F)F)c3)CC[C@@H]2Nc2cc(F)c(S(=O)(=O)Nc3ccncn3)cc2Cl)C1 [Example 33, (S)—N-((1S,2S,5S)-2-((2-chloro-5-fluoro-4-(N-(pyrimidin-4-yl)sulfamoyl)phenyl)amino)-5-(3-(trifluoromethyl)phenyl)cyclohexyl)-N,1-dimethylpyrrolidine-3-carboxamide] | 2.45 nM | 0.629 nM |
| CN1CC[C@@H](C(=O)N(C)[C@H]2C[C@@H](c3cccc(C(F)(F)F)c3)CC[C@@H]2Nc2cc(F)c(S(=O)(=O)Nc3ccncn3)cc2Cl)C1 [Example 34, (R)—N-((1S,2S,5S)-2-((2-Chloro-5-fluoro-4-(N-(pyrimidin-4-yl)sulfamoyl)phenyl)amino)-5-(3-(trifluoromethyl)phenyl)cyclohexyl)-N,1-dimethylpyrrolidine-3-carboxamide] | 2.6 nM | 0.672 nM |
| CN(C)[C@H]1C[C@@](O)(c2cccc(C(F)(F)F)c2)CC[C@@H]1Nc1cc(F)c(S(=O)(=O)Nc2ccncn2)cc1Cl [Example 35, 5-chloro-4-(((1S,2S,4R)-2-(dimethylamino)-4-hydroxy-4-(3-(trifluoromethyl)phenyl)-cyclohexyl)amino)-2-fluoro-N-(pyrimidin-4-yl)benzenesulfonamide formate] | 3.95 nM | 1.92 nM |
